The text below walks through data of publication PMC12921516 (ACS Bio & Med Chem Au, 2025).

Entries after “also recorded” stand apart in the source; their conditions may differ.

A word on the IC50: it is the point on the concentration scale where inhibition reaches its midpoint. As usually defined, the CC50 is the concentration at which the toxic effect on the cells reaches its halfway point. A higher CC50 goes with better tolerance by the cells.

One data set addresses T1, hPTP1B1–400 (Homo sapiens, UniProt P18031).
T1 construct: h PTP1B 1–400 IC 50 (μM ± S.D); made in house
T1 sequence (P18031 1-400): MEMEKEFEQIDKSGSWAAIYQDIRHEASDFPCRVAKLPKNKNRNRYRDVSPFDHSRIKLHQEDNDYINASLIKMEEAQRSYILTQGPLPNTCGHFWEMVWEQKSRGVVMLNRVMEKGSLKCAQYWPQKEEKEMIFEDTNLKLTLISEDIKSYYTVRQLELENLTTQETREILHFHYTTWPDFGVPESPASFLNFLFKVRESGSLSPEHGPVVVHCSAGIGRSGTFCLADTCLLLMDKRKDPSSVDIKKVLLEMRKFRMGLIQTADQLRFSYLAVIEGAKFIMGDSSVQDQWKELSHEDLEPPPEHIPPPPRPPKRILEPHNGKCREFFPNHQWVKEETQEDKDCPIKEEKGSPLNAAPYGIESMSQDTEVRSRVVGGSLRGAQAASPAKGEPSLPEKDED
In words: PTP1B inhibition, pNPP hydrolysis, long form. The note with it: pNPP substrate, 15 min 37 °C, pH 6.8; ± S.D. The class given is biochemical.

Data set [1] is described as follows: Cytotoxicity, Sulforhodamine B assay. The class given is cell-based, human. The note with it: human, HFF-1 normal foreskin fibroblast cells; HFF-1 proliferation, 48-h incubation, 0.78 μM to 100 μM. The method, then: Given the significance of a drug candidate’s toxicity in relation to its inhibition potential, a cytotoxicity assay was conducted using Normal Human Foreskin Fibroblasts (HFF-1).
All assays were carried out in triplicate. Cell proliferation was determined by the Sulforhodamine B assay, and the half-maximal cytotoxic concentration (CC50) was determined by Probit analysis.
Background: The SRB assay estimates cell density from bound dye.

The test system of another data set is HepG2 cells. In words: Cell viability of HepG2 with crystal violet. Type of data set: cell-based, human. The note with it: 1, 10, and 30 µM for 24, 48 and 72 h. The method, then:
A 96-well plate was seeded with 3,000 HepG2 cells per well and incubated for 72 h. Subsequently, the cells were treated with test compounds at various concentrations for 24, 48, and 72 h. After incubation, the medium was removed, and 100 μL of 1% glutaraldehyde was added for 15 min. The glutaraldehyde was then removed, and 50 μL of 0.5% crystal violet (dissolved in 25% methanol) was added for 30 min. The crystal violet staining solution was subsequently removed, and the plate was thoroughly rinsed with tap water. The precipitate was dissolved in a 10% acetic acid solution, mixed for 15 min, and the absorbance was measured at 590 nm using a plate reader (xMark Microplate Spectrophotometer, Bio-Rad).
Figure S48. Cell viability assessment by crystal violet staining. HepG2 cell viability was evaluated after treatment with the respective compounds at concentrations of 1 , 10, and 30 µM for 24 , 48 and 72 hours. Bar graphs represent mean ± SEM. No significant differences were detected using ANOVA. […]

Data set [2] relates to STZ-induced diabetic CD-1 mice. Put plainly: Insulin tolerance test (ITT). The class given is in vivo. The note with it: for glycemia variation in ITT: single intragastric dose 50 mg/kg, insulin 0.75 IU after 30 min. The method, then:
The studies were carried out on compounds 4b, 4g, and 5g using both normoglycemic CD1 mice and a mouse model of noninsulin-dependent diabetes mellitus (NIDDM). An oral glucose tolerance test (OGTT) was conducted on the normoglycemic mice to evaluate the hypoglycemic activity of the compounds, while an insulin tolerance test (ITT) was performed on hyperglycemic CD1 mice to assess the compounds' capacity to enhance insulin sensitivity in streptozotocin-induced diabetic mice. Pioglitazone and GA were included as positive controls. […] Healthy six-week-old male CD-1 mice, weighing between 30 and 40 g, were maintained at a temperature of 25 ± 2 °C, under a 12-h light/dark cycle and 45-65% humidity throughout the experimental period. The mice were provided with a rodent pelleted diet (Harlan Laboratories, Indianapolis, USA) and had access to water ad libitum. Sixteen hours before the experiment, all mice were fasted but still had free access to water. All animal procedures were conducted in accordance with the Mexican Federal Regulations for Animal Experimentation and Care (SAGARPA, NOM-062-ZOO-1999, Mexico) and received approval from the Institutional Animal Care and Use Committee, following guidelines outlined in the US National Institutes of Health publication (No. 85-23, revised 1985). Streptozotocin (STZ) was dissolved in citrate buffer (pH 4.5), while nicotinamide was dissolved in a normal physiological saline solution. The noninsulin-dependent diabetes (NIDD) mouse model was induced in overnight-fasted mice through a single intraperitoneal injection of STZ (100 mg/kg). Nicotinamide was administered 15 min prior, at a dose of 20 mg/kg via intraperitoneal injection. […] Roche). […] Animals were categorized into five groups, each consisting of four mice (n = 4). The experimental groups received an oral suspension of compounds 4b, 4g, and 5g, prepared in a 10% Tween 20/water solution, at a dosage of 50 mg/kg body weight. A control group was treated with only the 10% Tween 20 solution. The final group was administered pioglitazone at a dose of 45 mg/kg, which is recognized as a reference drug for insulin sensitization. To evaluate glucose levels, blood samples were collected from the tails of the mice at 0, 30, 60, 90, and 120 min after the administration of the vehicle, test compound, or drug. Blood glucose concentration was measured using a commercial glucometer (Accu-Chek, Performa; Roche) and the enzymatic glucose dehydrogenase method. The percentage variation in glycemia was calculated by comparing the selected postadministration glycemia (G x ) with the initial value (G0) using the following formula: %[…]=[(Gx-G0)/G0]×100 where G0 represents the initial glycemia values and Gx indicates the glycemia values at +30, + 60, + 90, and +120 min, respectively. To evaluate the ability of GA derivatives to enhance insulin sensitivity in STZ-induced diabetic CD-1 mice, compounds 4b, 4g, and 5g were tested. Glycyrrhetinic acid (GA) and Pioglitazone served as positive controls. The GA derivatives and the positive controls were administered to the diabetic animals, followed by the administration of human rapid-acting insulin (0.75 IU) after 30 min. Subsequently, glucose levels were measured every 15 min.

In turn, `CC1(C)c2[nH]c3ccc(OC(F)F)cc3c2C[C@]2(C)[C@H]3C(=O)C=C4[C@@H]5C[C@@](C)(C(=O)O)CC[C@]5(C)CC[C@@]4(C)[C@]3(C)CC[C@@H]12` [compound 4b, (20β)-5′-(Difluoromethoxy)-11-oxo-1′H-oleana-2,12-dieno[3,2-b]indol-29-oic Acid] showed a half-maximal inhibitory concentration (IC50) on hPTP1B1–400 of 1580 ± 70 nM. The compound also came in with a half-maximal cytotoxic concentration (CC50) at 48 h in data set [1] of 98700 ± 2000 nM. Besides, in the data set on HepG2 cells, the HepG2 cell viability entry is listed as “No significant differences; also recorded: did not compromise HepG2 cell viability”. Also, in data set [2] (50 mg/kg), the “ITT activity compared to GA” value was “greater potency than GA” and the “glycemia variation in ITT” value is given as “significantly reduced glucose levels; also recorded: reduce glycemia variation starting from the 15th minute”.

Regarding `CC1(C)c2[nH]c3ccc(S(N)(=O)=O)cc3c2C[C@]2(C)[C@H]3C(=O)C=C4[C@@H]5C[C@@](C)(C(=O)O)CC[C@]5(C)CC[C@@]4(C)[C@]3(C)CC[C@@H]12` [compound 4g, (20β)-5′-Sulfamoyl-11-oxo-1′H-oleana-2,12-dieno[3,2-b]indol-29-oic Acid], on hPTP1B1–400, the IC50 was determined as 2060 ± 120 nM. Besides, the CC50 at 48 h in data set [1] was greater than 100000 nM. Moreover, in the data set on HepG2 cells, the HepG2 cell viability entry is recorded as “No significant differences”. Besides, the “glycemia variation in ITT” value in data set [2] is “reduce glycemia variation starting from the 15th minute”.

In the case of `CC1(C)c2c(cnn2-c2ccc(S(N)(=O)=O)cc2)C[C@]2(C)[C@H]3C(=O)C=C4[C@@H]5C[C@@](C)(C(=O)O)CC[C@]5(C)CC[C@@]4(C)[C@]3(C)CC[C@@H]12` [compound 5g, (20β)-11-Oxo-2′-(4-sulfamoylphenyl)-2′H-oleana-2,12-dieno[3,2-c]pyrazol-29-oic Acid], 1480 ± 180 nM corresponded to half-maximal inhibition on hPTP1B1–400 (IC50). In addition, the CC50 at 48 h in data set [1] was greater than 100000 nM. In addition, in the data set with HepG2 cells, the HepG2 cell viability result is given as “No significant differences; also recorded: did not compromise HepG2 cell viability”. For the same compound, in data set [2] (50 mg/kg), the “ITT activity compared to GA” value is “greater potency than GA” and the “glycemia variation in ITT” value is on record as “significantly reduced glucose levels; also recorded: reduce glycemia variation starting from the 15th minute”. The “ITT activity compared to pioglitazone” value in data set [2] (50 mg/kg vs pioglitazone 45 mg/kg) is “superior activity compared to pioglitazone”. In addition, the “glycemic variation in ITT compared with normoglycemic mice” value in data set [2] (50 mg/kg, after the 45th minute) was “no significant differences in glycemic variation”.
